From patent US20210145838A1, “SELECTIVE PDE4D INHIBITORS AGAINST DEMYELINATING DISEASES” (Universiteit Hasselt, priority 2018, published 2021)

Test system: primary mouse oligodendrocyte precursor cells
Assay: In vitro differentiation of primary mouse OPCs (MBP/O4 immunostaining, MBP western blot)
Assay type: cell-based
Conditions: for Relative MBP protein expression (ratio MBP to β-actin), western blot: treatment day 0, 2, 4, 6 days, compared to vehicle; for MBP protein expression (IHC), dose dependence / MBP/O4 ratio, dose dependence: Roflumilast 5, 10 μM, Gebr32a 0.5, 1, 5 μM, BPN14770 0.1-10 μM, day 6
Experimental: (§1) FIG. 3: Inhibition of PDE4 by roflumilast induces differentiation of primary mouse oligodendrocyte precursor cells. Primary mouse oligodendrocyte precursor cells (OPCs) were isolated from p0 C57bl6 pups using the shake off method at day 0. Primary OPCs (150.000 cells/condition) were cultured and stimulated with vehicle (0.1% DMSO) or the PDE4 inhibitor Roflumilast (5 μM, or 10 μM) in 0.1% DMSO. Treatment was repeated on day 2 and day 4, applying a 40% medium change. Cells were fixated at day 6 and stained for O4, a late OPC marker and MBP, an oligodendrocyte marker.
(§2) For western blot, primary OPCs (500.000 cells/condition) were cultured and stimulated with vehicle (0.1% DMSO) or the PDE4 inhibitor Roflumilast (5 μM) in 0.1% DMSO. Treatment was repeated on day 2 and day 4, applying a 40% medium change. […] IHC Data were analyzed using a non-parametric Kruskal-Wallis test with Dunn's multiple comparisons test was performed; p<0.05=*; n=4/group. Western blot data were analyzed using a non-parametric Mann-Withney test; p<0.05; n=4/group.
as §1, with “4:” for “3:”, “PDE4D” for “PDE4”, “Gebr32a” for “roflumilast”, “Gebr32a (0.5” for “Roflumilast (5”, “μM, 1 μM” for “μM,”, “5” for “10”
as §2, with “PDE4D” for “PDE4”, “Gebr32a” for “Roflumilast”
FIG. 5: Inhibition of PDE4D by BPN14770 induces differentiation of primary mouse oligodendrocyte precursor cells. Primary mouse oligodendrocyte precursor cells (OPCs) were isolated from p0 C57bl6 pups using the shake off method at day 0. Primary OPCs (150.000 cells/condition) were cultured and stimulated with vehicle (PBS) or the PDE4D inhibitor BPN14770 (0.1 μM, 0.3 μM, 1 μM, 3 μM and 10 μM) in PBS. Treatment was repeated on day 2 and day 4, applying a 40% medium change. Cells were fixated at day 6 and stained for O4, a late OPC marker and MBP, an oligodendrocyte marker.
Mixed glial cultures were prepared from postnatal day 2 mouse cerebral cortices of C57BLl/6JOIaHsd animals and used to generate OPC-enriched glial cultures by separating the OPCs from the astrocyte monolayer by orbital shaking followed by purification by differential adhesion to plastic. Purified OPCs were seeded on poly-L-lysine (5 μg/ml; Sigma-Aldrich, Bornem, Belgium) coated plates or glass cover slides for staining. Isolated OPCs were plated in 24-well plates (150,000 cells/well Greiner Bio-One, Frickenhausen, Germany) for immunocytochemistry or in 6-well plates (500,000 cells/well Greiner Bio-One, Frickenhausen, Germany) for western blot analyses. OPCs were induced to differentiate for 6 days with Roflumilast (5 μM and 10 μM), Gebr32 (0.5, 1 and 5 μM) or vehicle (DMSO) in SATO-medium supplemented with 2% horse serum (Sigma-Aldrich). Treatment was repeated on day 2 and 4, applying a 40% medium change. All plates were at 37° C. and 8.5% C02.
Western blot was used to assess the total MBP production by OPC treated with roflumilast or Gebr32a compare to the vehicle group. Equal amount of protein sample was separated by 10% sodium dodecyl sulfate polyacrylamide gel electrophorese and blotted onto a PVDF membrane (GE Healthcare, Buckinghamshore, UK). […]

| SMILES | Relative MBP protein expression (ratio MBP to β-actin), western blot (5 μM) | MBP protein expression (IHC), dose dependence | MBP/O4 ratio, dose dependence | Relative MBP protein expression, IHC (5 μM, fixated at day 6, compared to vehicle) |
| --- | --- | --- | --- | --- |
| OC(CN1CCOCC1)Cn1ccc(-c2ccc(OC(F)F)c(OC3CCCC3)c2)n1 (stereo not shown) [Gebr32a] | three-fold increase | dose-dependent increase | dose-dependent increase | – |
| O=C(Nc1c(Cl)cncc1Cl)c1ccc(OC(F)F)c(OCC2CC2)c1 [roflumilast] | three-fold increased | increased dose-dependently | increased dose-dependently | three-fold increased |
